Experimental data as given in ChEMBL document CHEMBL2146416 (Bioorg Med Chem, 2012).

Molecular target: 4-aminobutyrate aminotransferase, mitochondrial (Sus scrofa, UniProt P80147)
Experiment: Competitive inhibition of pig GABA aminotransferase using alpha-ketoglutarate as substrate by SSADH-coupled assay

Sequence of 4-aminobutyrate aminotransferase, mitochondrial (P80147 whole entry): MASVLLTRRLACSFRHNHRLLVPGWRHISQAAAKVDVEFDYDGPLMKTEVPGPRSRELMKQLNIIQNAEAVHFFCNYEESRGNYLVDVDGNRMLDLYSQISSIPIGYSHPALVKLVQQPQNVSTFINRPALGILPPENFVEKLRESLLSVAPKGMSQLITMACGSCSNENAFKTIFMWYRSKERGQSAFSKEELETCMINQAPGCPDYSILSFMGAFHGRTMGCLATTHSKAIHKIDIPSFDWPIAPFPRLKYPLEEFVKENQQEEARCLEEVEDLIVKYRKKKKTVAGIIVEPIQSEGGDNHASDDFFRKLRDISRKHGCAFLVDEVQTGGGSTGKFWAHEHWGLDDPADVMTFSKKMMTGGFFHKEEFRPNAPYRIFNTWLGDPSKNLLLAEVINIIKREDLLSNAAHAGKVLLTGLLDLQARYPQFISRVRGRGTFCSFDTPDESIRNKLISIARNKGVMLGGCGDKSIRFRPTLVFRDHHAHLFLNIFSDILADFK

Row | SMILES | Ki
1 | NCc1cocc1C(=O)O | 2270 µM
2 | NCc1coc(C(=O)O)c1 | 1640 µM
3 | NCc1ccc(C(=O)O)[nH]1 | 2140 µM
4 | NCc1cscc1C(=O)O | 2860 µM
5 | NCc1ccc(C(=O)O)s1 | 2490 µM

The next compounds have a lower Ki than those just listed; values first:

Row | Ki | SMILES
6 | 1590 µM | NCc1c[nH]c(C(=O)O)c1
7 | 1350 µM | NCc1csc(C(=O)O)c1
8 | 1400 µM | NCc1ccc(C(=O)O)o1
